Experimental data as given in patent US6737383B1, “Herbicidal oxadiazolidines” (priority 1999, dated 2004).

Assays:
blackgrass = assay: Test B pre/postemergence blackgrass; assay type: in vivo, Alopecurus myosuroides
How it was run: (§1)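 Herbicidal effect was estimated by eye on a ten-point control scale after plants spent twelve to sixteen days in a greenhouse following soil or foliar treatment. Foliar sprays targeted plants at one to four leaves; all doses were formulated in a non-phytotoxic solvent with surfactant.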

surinam grass = assay: Test B pre/postemergence surinam grass; assay type: in vivo, Brachiaria decumbens
How it was run: as §1

cocklebur = assay: Test B pre/postemergence cocklebur; assay type: in vivo, Xanthium strumarium
How it was run: as §1

corn = assay: Test B pre/postemergence corn; assay type: in vivo, Zea mays
How it was run: as §1

crabgrass = assay: Test B pre/postemergence crabgrass; assay type: in vivo, Digitaria sanguinalis
How it was run: as §1

giant foxtail = assay: Test B pre/postemergence giant foxtail; assay type: in vivo, Setaria faberii
How it was run: as §1

morningglory = assay: Test B pre/postemergence morningglory; assay type: in vivo, Ipomoea hederacea
How it was run: as §1

pigweed = assay: Test B pre/postemergence pigweed; assay type: in vivo, Amaranthus retroflexus
How it was run: as §1

rape = assay: Test B pre/postemergence rape; assay type: in vivo, Brassica napus
How it was run: as §1

soybean = assay: Test B pre/postemergence soybean; assay type: in vivo, Glycine max
How it was run: as §1

sugar beet = assay: Test B pre/postemergence sugar beet; assay type: in vivo, Beta vulgaris
How it was run: as §1

velvetleaf = assay: Test B pre/postemergence velvetleaf; assay type: in vivo, Abutilon theophrasti
How it was run: as §1

wild oat = assay: Test B pre/postemergence wild oat; assay type: in vivo, Avena fatua
How it was run: as §1

purple nutsedge = assay: Test B pre/postemergence purple nutsedge; assay type: in vivo, Cyperus rotundus
How it was run: as §1

smallflower flatsedge = assay: Test B flood test smallflower flatsedge; assay type: in vivo, Cyperus difformis
How it was run: (§2)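 Plants were grown to the 2-leaf stage before treatment with test chemical, then held in a greenhouse for twelve to sixteen days. Injury was visually rated against untreated controls on a 0–10 scale, where 0 is no effect and 10 is complete control.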

bamyardgrass = assay: Test B flood test barnyardgrass; assay type: in vivo, Echinochloa crus-galli
How it was run: as §2

[1] = Postemergence, Rate 250 g/ha, scale 0 to 10
[2] = Postemergence, Rate 500 g/ha, scale of 0 to 10 where 0 is no effect and 10 is complete control
[3] = Preemergence, Rate 62 g/ha, scale 0 to 10 (0 no effect, 10 complete control)
[4] = Preemergence, Rate 125 g/ha, scale of 0 to 10 where 0 is no effect and 10 is complete control
[5] = Preemergence, Rate 250 g/ha, scale of 0 to 10 where 0 is no effect and 10 is complete control
[6] = Preemergence, Rate 500 g/ha, scale 0 to 10, 0 is no effect, 10 is complete control
[7] = Rate 62 g/ha, Postemergence, scale of 0 to 10 where 0 is no effect and 10 is complete control
[8] = Rate 125 g/ha, Postemergence, scale 0 to 10, 0 is no effect, 10 is complete control
[9] = Preemergence, Rate 250 g/ha, scale 0 to 10, 0 is no effect, 10 is complete control
[10] = Postemergence block (flood test species), Rate 250 g/ha, scale 0 to 10
[11] = Postemergence section (flood test species), Rate 500 g/ha, scale of 0 to 10 where 0 is no effect and 10 is complete control
[12] = Rate 125 g/ha, Postemergence section (flood test species), scale 0 to 10, 0 is no effect, 10 is complete control

CC(C)N(C(=O)n1oc(=O)n(C[Si](C)(C)c2ccccc2)c1=O)c1ccc(Cl)cc1 [Compound 424]
1: Morningglory plant response rating (morningglory; [2]) | Soybean plant response rating (soybean; [1])
2: Soybean plant response rating (soybean; [2])
0: Blackgrass plant response rating (blackgrass; [1]) | Blackgrass plant response rating (blackgrass; [2]) | Plant response rating, Blackgrass (blackgrass; [3]) | Plant response rating, Blackgrass (blackgrass; [4]) | Blackgrass plant response rating (blackgrass; [5]) | Blackgrass plant response rating (blackgrass; [6]) | Blackgrass plant response rating (blackgrass; [7]) | Blackgrass plant response rating (blackgrass; [8]) | B. signalgrass plant response rating (surinam grass; Postemergence, Rate 250 g/ha, scale 0 to 10, 0 no effect, 10 complete control) | B. signalgrass plant response rating (surinam grass; [2]) | Plant response rating, B. signalgrass (surinam grass; [3]) | Plant response rating, B. signalgrass (surinam grass; [4]) | B. signalgrass plant response rating (surinam grass; [5]) | B. signalgrass plant response rating (surinam grass; Preemergence, Rate 500 g/ha, scale of 0 to 10 where 0 is no effect and 10 is complete control) | B. signalgrass plant response rating (surinam grass; [7]) | B. signalgrass plant response rating (surinam grass; [8]) | Cocklebur plant response rating (cocklebur; [1]) | Cocklebur plant response rating (cocklebur; [2]) | Plant response rating, Cocklebur (cocklebur; [3]) | Plant response rating, Cocklebur (cocklebur; [4]) | Cocklebur plant response rating (cocklebur; [9]) | Cocklebur plant response rating (cocklebur; [6]) | Cocklebur plant response rating (cocklebur; [7]) | Cocklebur plant response rating (cocklebur; [8]) | Corn plant response rating (corn; [1]) | Corn plant response rating (corn; [2]) | Plant response rating, Corn (corn; [3]) | Plant response rating, Corn (corn; [4]) | Corn plant response rating (corn; [9]) | Corn plant response rating (corn; [6]) | Corn plant response rating (corn; [7]) | Corn plant response rating (corn; [8]) | Crabgrass plant response rating (crabgrass; [1]) | Crabgrass plant response rating (crabgrass; [2]) | Plant response rating, Crabgrass (crabgrass; [3]) | Plant response rating, Crabgrass (crabgrass; [4]) | Crabgrass plant response rating (crabgrass; [9]) | Crabgrass plant response rating (crabgrass; [6]) | Crabgrass plant response rating (crabgrass; [7]) | Crabgrass plant response rating (crabgrass; [8]) | Giant foxtail plant response rating (giant foxtail; [1]) | Giant foxtail plant response rating (giant foxtail; [2]) | Plant response rating, Giant foxtail (giant foxtail; [3]) | Plant response rating, Giant foxtail (giant foxtail; [4]) | Giant foxtail plant response rating (giant foxtail; [9]) | Giant foxtail plant response rating (giant foxtail; [6]) | Giant foxtail plant response rating (giant foxtail; [7]) | Giant foxtail plant response rating (giant foxtail; [8]) | Morningglory plant response rating (morningglory; [1]) | Plant response rating, Morningglory (morningglory; [3]) | Plant response rating, Morningglory (morningglory; [4]) | Morningglory plant response rating (morningglory; [9]) | Morningglory plant response rating (morningglory; [6]) | Morningglory plant response rating (morningglory; [8]) | Redroot pigweed plant response rating (pigweed; [1]) | Redroot pigweed plant response rating (pigweed; [2]) | Plant response rating, Redroot pigweed (pigweed; [3]) | Plant response rating, Redroot pigweed (pigweed; [4]) | Redroot pigweed plant response rating (pigweed; [9]) | Redroot pigweed plant response rating (pigweed; [6]) | Redroot pigweed plant response rating (pigweed; [8]) | Rape plant response rating (rape; [1]) | Rape plant response rating (rape; [2]) | Plant response rating, Rape (rape; [3]) | Plant response rating, Rape (rape; [4]) | Rape plant response rating (rape; [9]) | Rape plant response rating (rape; [6]) | Rape plant response rating (rape; [8]) | Plant response rating, Soybean (soybean; [3]) | Plant response rating, Soybean (soybean; [4]) | Soybean plant response rating (soybean; [9]) | Soybean plant response rating (soybean; [6]) | Soybean plant response rating (soybean; [8]) | Sugarbeets plant response rating (sugar beet; [1]) | Sugarbeets plant response rating (sugar beet; [2]) | Plant response rating, Sugarbeets (sugar beet; [3]) | Plant response rating, Sugarbeets (sugar beet; [4]) | Sugarbeets plant response rating (sugar beet; [9]) | Sugarbeets plant response rating (sugar beet; [6]) | Sugarbeets plant response rating (sugar beet; [8]) | Velvetleaf plant response rating (velvetleaf; [1]) | Velvetleaf plant response rating (velvetleaf; [2]) | Plant response rating, Velvetleaf (velvetleaf; [3]) | Plant response rating, Velvetleaf (velvetleaf; [4]) | Velvetleaf plant response rating (velvetleaf; [9]) | Velvetleaf plant response rating (velvetleaf; [6]) | Velvetleaf plant response rating (velvetleaf; [8]) | Wild oats plant response rating (wild oat; [1]) | Wild oats plant response rating (wild oat; [2]) | Plant response rating, Wild oats (wild oat; [3]) | Plant response rating, Wild oats (wild oat; [4]) | Wild oats plant response rating (wild oat; [9]) | Wild oats plant response rating (wild oat; [6]) | Wild oats plant response rating (wild oat; [8]) | Nutsedge plant response rating (purple nutsedge; [1]) | Nutsedge plant response rating (purple nutsedge; [2]) | Plant response rating, Nutsedge (purple nutsedge; [3]) | Plant response rating, Nutsedge (purple nutsedge; [4]) | Nutsedge plant response rating (purple nutsedge; [9]) | Nutsedge plant response rating (purple nutsedge; [6]) | Nutsedge plant response rating (purple nutsedge; [8]) | S. Flatsedge plant response rating (smallflower flatsedge; [10]) | S. Flatsedge plant response rating (smallflower flatsedge; [11]) | S. Flatsedge plant response rating (smallflower flatsedge; [12]) | Barnyardgrass plant response rating (bamyardgrass; [10]) | Barnyardgrass plant response rating (bamyardgrass; [11]) | Barnyardgrass plant response rating (bamyardgrass; Rate 62 g/ha, Postemergence (flood test species), scale of 0 to 10 where 0 is no effect and 10 is complete control) | Barnyardgrass plant response rating (bamyardgrass; [12])
